The record followed here is patent US8633251B2, “Derivatives of aminoalkanols, method of obtaining of aminoalkanols and their use” (Uniwersytet Jagiellonski, priority 2008, dated 2014).

Counter-ions that a name gives are not always drawn.

The subject of data set [1] is maximal electroshock seizures. The data set is described as follows: Maximum Electroshock Seizure (MES) test, mice. The class given is in vivo. Conditions: for MES, No. of protected animals/No. of used animals: mice. The procedure: (§1) In order to define anticonvulsant activity, screening tests were performed, using animal models of seizures. […] Each substance (after dissolving in methylcellulose) was normally tested in doses 30, 100, and 300 mg/kg body weight (b.w.) (mice) or in 30 and 50 mg/kg b.w. (rats) in two possible routes of administration: intraperitoneal (i.p.) or oral (p.o.). Appropriate tests were performed 0.5 and 4 h after administration of the compound. […] (mice) the tests were also performed in doses 10 and 3 mg/kg b.w.
Maximum Electroshock Seizure (MES) test is an electric test, verifying activity towards generalized tonic-clonic seizures (grand mal epilepsy). […] Its procedure consists in administration to an animal a mentioned dose, and after 0.5 or 4 h attaching corneal electrodes (after anesthetic eye-drops: 0.5% tetracaine hydrochloride in 0.9% NaCl) and turning on electric current (60 Hz, 0.2 s, 50 mA (mice) or 150 mA (rats)). […] Normally, in the dose 30 mg/kg b.w. the test is done in 1 mouse after 0.5 or 4 h, in the dose 100 mg/kg b.w.—in 3 mice, and in the dose 300 mg/kg b.w.—in 1 mouse.

Data set [2] deals with neurotoxicity (rotarod). Nature of the data set: Neurotoxicity test (TOX), rotarod, mice. The class given is in vivo. The procedure:
as §1
It is performed with use of rotarod test. The animal is placed on a plastic rod (1 inch in diameter), rotating 6 rpm. The rod is placed on a level discouraging the animal to jump off. […] Neurotoxicity is stated if the animal cannot stay on the rod for 1 min. in any of 3 trials. Normally the test is performed in dose 30 mg/kg b.w. in 4 mice (0.5 h) and in 2 mice (4 h), in the dose 100 mg/kg b.w. in 8 mice (0.5 h) and in 4 mice (4 h) and in the dose 300 mg/kg b.w. in 4 mice (0.5 h) and 2 mice (4 h).
(Falling from the rotarod earlier than controls is read as motor impairment.)

Setting [3] is: dose 100 mg/kg b.w., time 0.5 h.
Where [4] appears, read: mice, dose 300 mg/kg b.w., time 0.5 h.
Where [5] appears, read: mice, dose 100 mg/kg b.w., 0.5 h.
The mark [6] stands for this setting: mice, dose 300 mg/kg b.w., 0.5 h.
Setting [7] is: mice, dose 100 mg/kg b.w., time 0.5 h.
The mark [8] stands for this setting: dose 300 mg/kg b.w., time 0.5 h.
Setting [9] is: mice, dose 30 mg/kg b.w., time 0.5 h.
The mark [10] stands for this setting: mice, dose 30 mg/kg b.w., time 4 h.
The mark [11] stands for this setting: mice, dose 100 mg/kg b.w., time 4 h.
Setting [12] is: mice, dose 300 mg/kg b.w., time 4 h.

Turning to `Cc1cc(Cl)ccc1OCCNC(C)(C)CO` [Compound 36, 2N-[(4-chlor-2-methylphenoxy)ethyl]amino-2-methyl-1-propanol], the “MES, No. of protected animals/No. of used animals” value in data set [1] (setting [3]) is reported as 3/3. Further, in data set [2] (setting [4]), the “TOX, No. of animals exhibiting motor impairment/no. of used animals” value is 4/4.

With `Cc1cccc(C)c1OCC(=O)NC(C)CO` (stereo not shown) [Compound 60, R,S-2N-[(2,6-dimethylphenoxy)acetyl]amino-1-propanol], in data set [1] (dose 300 mg/kg b.w., 0.5 h), the “MES, No. of protected animals/No. of used animals” value is 1/1. In addition, the “TOX, No. of animals exhibiting motor impairment/no. of used animals” value is recorded as 2/8 in data set [2] (setting [5]); 2/4 in data set [2] (mice, dose 100 mg/kg b.w., 4 h); 4/4 in data set [2] (setting [6]).

Turning to `Cc1cccc(C)c1OCCN[C@@H]1CCCC[C@H]1O` (relative stereo) [Compound 18, D,L-trans-2N-[(2,6-dimethylphenoxy)ethyl]amino-1-cyclohexanol], in data set [1] (setting [3]), the “MES, No. of protected animals/No. of used animals” value is listed as 3/3. For the same compound, the “TOX, No. of animals exhibiting motor impairment/no. of used animals” value is 7/8 in data set [2] (setting [7]) and 4/4 in data set [2] (setting [4]).

As to `Cc1cccc(C)c1OCCNC[C@@H](O)c1ccccc1` [Compound 21, S-(+)-2N-[(2,6-dimethylphenoxy)ethyl]amino-1-phenylethanol], the “MES, No. of protected animals/No. of used animals” value is recorded as 1/1 in data set [1] (dose 30 mg/kg b.w., time 0.5 h) and 3/3 in data set [1] (setting [3]). Further, the “TOX, No. of animals exhibiting motor impairment/no. of used animals” value in data set [2] (setting [7]) was 7/8; in data set [2] (setting [4]) it was 4/4.

As to “R,S-2N-[(2,3-dimethylphenoxy)ethyl]amino-1-propanol [Compound 1]”, the “MES, No. of protected animals/No. of used animals” value in data set [1] (setting [3]) is given as 3/3. Also, the “TOX, No. of animals exhibiting motor impairment/no. of used animals” value is 7/8 in data set [2] (mouse, in vivo, 100 mg/kg) and 4/4 in data set [2] (mouse, in vivo, 300 mg/kg).

`Cc1cc(C)c(C)c(OCCNC(C)CO)c1` (stereo not shown) [Compound 38, R,S-2N-[(2,3,5-trimethylphenoxy)ethyl]amino-1-propanol]: the “MES, No. of protected animals/No. of used animals” value in data set [1] (dose 30 mg/kg b.w., time 0.5 h) is 1/1; in data set [1] (setting [3]) it was 3/3; in data set [1] (dose 100 mg/kg b.w., time 4 h) it was 2/2. Further, the “TOX, No. of animals exhibiting motor impairment/no. of used animals” value in data set [2] (mouse, in vivo, 300 mg/kg) is recorded as 4/4.

Take `Cc1cccc(OCCCNCC(O)c2ccccc2)c1C` (racemic) [Compound 49, R,S-2N-[(2,3-dimethylphenoxy)propyl]amino-1-phenylethanol]: the “MES, No. of protected animals/No. of used animals” value in data set [1] (setting [8]) is 1/1. The “TOX, No. of animals exhibiting motor impairment/no. of used animals” value in data set [2] (setting [9]) is 1/4; in data set [2] (setting [10]) it was 1/2; in data set [2] (setting [7]) it was 6/8; in data set [2] (setting [11]), 3/4; in data set [2] (setting [4]), 4/4; in data set [2] (setting [12]) it was 2/2.

As to `Cc1cccc(C)c1OCCNCCCCCO` [Compound 17, 5N-[(2,6-dimethylphenoxy)ethyl]amino-1-pentanol hydrochloride], in data set [1] (Mus musculus, 0.5 h, read-out: MES, No. of protected animals/No. of used animals), the responders at 100 mg/kg is 100%. Also, the “TOX, No. of animals exhibiting motor impairment/no. of used animals” value in data set [2] (setting [7]) is recorded as 7/8; in data set [2] (setting [4]), 4/4; in data set [2] (setting [12]), 1/1.

Take `CC[C@@H](CO)NCCOc1cc(C)cc(C)c1C` [Compound 41, S-(+)-2N-[(2,3,5-trimethylphenoxy)ethyl]amino-1-butanol]: the “MES, No. of protected animals/No. of used animals” value was 1/1 in data set [1] (dose 30 mg/kg b.w., time 0.5 h) and 3/3 in data set [1] (setting [3]). In addition, the “TOX, No. of animals exhibiting motor impairment/no. of used animals” value is on record as 3/4 in data set [2] (mouse, in vivo, 30 mg/kg); 7/8 in data set [2] (mouse, in vivo, 100 mg/kg); 4/4 in data set [2] (mouse, in vivo, 300 mg/kg).

With `Cc1cccc(Cl)c1OCC(=O)NC(C)CO` (stereo not shown) [Compound 69, R,S-2N-[(2-chlor-6-methylphenoxy)acetyl]amino-1-propanol], in data set [1] (dose 300 mg/kg b.w., 0.5 h), the “MES, No. of protected animals/No. of used animals” value is 1/1. In addition, the results for the “TOX, No. of animals exhibiting motor impairment/no. of used animals” value in data set [2] (setting [5]) and in data set [2] (setting [6]) were 1/8 and 1/4, respectively.

`CC[C@H](CO)NCCOc1c(C)cccc1Cl.Cl` [Compound 27a, R-(−)-2N-[(2-chlor-6-methylphenoxy)ethyl]amino-1-butanol hydrochloride]: the “MES, No. of protected animals/No. of used animals” value in data set [1] (dose 30 mg/kg b.w., time 0.5 h) is listed as 1/1; in data set [1] (setting [3]), 2/3. The “TOX, No. of animals exhibiting motor impairment/no. of used animals” value is recorded as 7/8 in data set [2] (setting [7]) and 4/4 in data set [2] (setting [4]).

In the case of `Cc1cc(C)c(C)c(OCCNCC(O)c2ccccc2)c1.Cl` (stereo not shown) [Compound 42, R,S-2N-[(2,3,5-trimethylphenoxy)ethyl]amino-1-phenylethanol hydrochloride], the “MES, No. of protected animals/No. of used animals” value in data set [1] (setting [3]) is reported as 3/3; in data set [1] (dose 100 mg/kg b.w., time 4 h), 1/3; in data set [1] (setting [8]), 1/1. For the same compound, the “TOX, No. of animals exhibiting motor impairment/no. of used animals” value in data set [2] (setting [9]) is listed as 3/4; in data set [2] (setting [10]) it was 1/2; in data set [2] (setting [7]) it was 8/8; in data set [2] (setting [11]), 4/4; in data set [2] (setting [4]), 4/4; in data set [2] (setting [12]), 1/1.

Consider `Cc1cccc(C)c1OCCCNC(C)CO` (racemic) [Compound 51, R,S-2N-[(2,6-dimethylphenoxy)propyl]amino-1-propanol], for which the “MES, No. of protected animals/No. of used animals” value was 1/1 in data set [1] (dose 30 mg/kg b.w., 0.5 h) and 3/3 in data set [1] (dose 100 mg/kg b.w., 0.5 h). Moreover, the “TOX, No. of animals exhibiting motor impairment/no. of used animals” value is 2/4 in data set [2] (mouse, in vivo, 30 mg/kg) and 4/4 in data set [2] (mouse, in vivo, 300 mg/kg).

In the case of `Cc1cccc(C)c1OCCN[C@@H](C)CO.Cl` [Compound 13a, S-(+)-2N-[(2,6-dimethylphenoxy)ethyl]amino-1-propanol hydrochloride], the “MES, No. of protected animals/No. of used animals” value is 1/1 in data set [1] (dose 30 mg/kg b.w., time 0.5 h) and 3/3 in data set [1] (setting [3]). Also, the “TOX, No. of animals exhibiting motor impairment/no. of used animals” value in data set [2] (mouse, in vivo, 100 mg/kg) is 8/8; in data set [2] (mouse, in vivo, 300 mg/kg), 4/4.

Take `CCC(CO)NCCOc1ccc(Cl)cc1C` (stereo not shown) [Compound 35, R,S-2N-[(4-chlor-2-methylphenoxy)ethyl]amino-1-butanol]: the “MES, No. of protected animals/No. of used animals” value in data set [1] (setting [3]) is reported as 3/3. For the same compound, the “TOX, No. of animals exhibiting motor impairment/no. of used animals” value is reported as 8/8 in data set [2] (setting [7]) and 4/4 in data set [2] (setting [4]).

In the case of `CCC(CO)NCCOc1cc(C)cc(C)c1C` (stereo not shown) [Compound 39, R,S-2N-[(2,3,5-trimethylphenoxy)ethyl]amino-1-butanol], the “MES, No. of protected animals/No. of used animals” value in data set [1] (dose 30 mg/kg b.w., time 0.5 h) was 1/1; in data set [1] (setting [3]), 3/3; in data set [1] (dose 100 mg/kg b.w., time 4 h), 1/3. The “TOX, No. of animals exhibiting motor impairment/no. of used animals” value is 7/8 in data set [2] (mouse, in vivo, 100 mg/kg) and 4/4 in data set [2] (mouse, in vivo, 300 mg/kg).

Consider `Cc1cccc(C)c1OCCN[C@H](C)CO` [Compound 12a, R-(−)-2N-[(2,6-dimethylphenoxy)ethyl]amino-1-propanol hydrochloride], for which the “MES, No. of protected animals/No. of used animals” value in data set [1] (dose 100 mg/kg b.w., time 0.5 h, hydrochloride, 100 mg/kg) is 3/3. Besides, the “TOX, No. of animals exhibiting motor impairment/no. of used animals” value in data set [2] (setting [12]) is on record as 1/1.

As for `CC[C@@H](CO)NCCOc1c(C)cccc1Cl.Cl` [Compound 28a, S-(+)-2N-[(2-chlor-6-methylphenoxy)ethyl]amino-1-butanol hydrochloride], the “MES, No. of protected animals/No. of used animals” value in data set [1] (setting [3]) was 1/1. Besides, the “TOX, No. of animals exhibiting motor impairment/no. of used animals” value in data set [2] (setting [7]) is 5/8; in data set [2] (setting [4]), 4/4.

In the case of “R-(+)-2N-[(2,6-dimethylphenoxy)acetyl]amino-1-propanol [Compound 61]”, in data set [1] (dose 300 mg/kg b.w., 0.5 h), the “MES, No. of protected animals/No. of used animals” value is on record as 1/1. Moreover, the “TOX, No. of animals exhibiting motor impairment/no. of used animals” value in data set [2] (setting [6]) is listed as 2/4.

On to `CCC(CO)NCCCOc1cccc(C)c1C` (racemic) [Compound 48, R,S-2N-[(2,3-dimethylphenoxy)propyl]amino-1-butanol], for which, in data set [1] (setting [3]), the “MES, No. of protected animals/No. of used animals” value is recorded as 3/3. For the same compound, the “TOX, No. of animals exhibiting motor impairment/no. of used animals” value was 8/8 in data set [2] (mouse, in vivo, 100 mg/kg) and 4/4 in data set [2] (mouse, in vivo, 300 mg/kg).

Regarding `CCC(CO)NCCCOc1c(C)cccc1C.Cl` (racemic) [Compound 55, R,S-2N-[(2,6-dimethylphenoxy)propyl]amino-1-butanol hydrochloride], the “MES, No. of protected animals/No. of used animals” value is on record as 1/1 in data set [1] (dose 30 mg/kg b.w., 0.5 h) and 3/3 in data set [1] (dose 100 mg/kg b.w., 0.5 h). For the same compound, the “TOX, No. of animals exhibiting motor impairment/no. of used animals” value was 8/8 in data set [2] (mouse, in vivo, 100 mg/kg) and 4/4 in data set [2] (mouse, in vivo, 300 mg/kg).
